From doi:10.1101/2023.12.04.569845, “Identification of 4-(6-((2-methoxyphenyl)amino)pyrazin-2-yl)benzoic acids as CSNK2A inhibitors with antiviral activity and improved selectivity over PIM3” (bioRxiv, 2023)
Like-named read-outs stand apart in the source and are kept apart here.

How the values were obtained:
Test in all cases: biochemical
Parameters in all cases: Thermal shift (DSF, SYPRO Orange) Tm shift of recombinant kinase domains at 10 uM compound
MER = molecular target: T1, MER (Homo sapiens, UniProt Q12866)
T1 construct: gene MERTK
T1 sequence (Q12866 1-999): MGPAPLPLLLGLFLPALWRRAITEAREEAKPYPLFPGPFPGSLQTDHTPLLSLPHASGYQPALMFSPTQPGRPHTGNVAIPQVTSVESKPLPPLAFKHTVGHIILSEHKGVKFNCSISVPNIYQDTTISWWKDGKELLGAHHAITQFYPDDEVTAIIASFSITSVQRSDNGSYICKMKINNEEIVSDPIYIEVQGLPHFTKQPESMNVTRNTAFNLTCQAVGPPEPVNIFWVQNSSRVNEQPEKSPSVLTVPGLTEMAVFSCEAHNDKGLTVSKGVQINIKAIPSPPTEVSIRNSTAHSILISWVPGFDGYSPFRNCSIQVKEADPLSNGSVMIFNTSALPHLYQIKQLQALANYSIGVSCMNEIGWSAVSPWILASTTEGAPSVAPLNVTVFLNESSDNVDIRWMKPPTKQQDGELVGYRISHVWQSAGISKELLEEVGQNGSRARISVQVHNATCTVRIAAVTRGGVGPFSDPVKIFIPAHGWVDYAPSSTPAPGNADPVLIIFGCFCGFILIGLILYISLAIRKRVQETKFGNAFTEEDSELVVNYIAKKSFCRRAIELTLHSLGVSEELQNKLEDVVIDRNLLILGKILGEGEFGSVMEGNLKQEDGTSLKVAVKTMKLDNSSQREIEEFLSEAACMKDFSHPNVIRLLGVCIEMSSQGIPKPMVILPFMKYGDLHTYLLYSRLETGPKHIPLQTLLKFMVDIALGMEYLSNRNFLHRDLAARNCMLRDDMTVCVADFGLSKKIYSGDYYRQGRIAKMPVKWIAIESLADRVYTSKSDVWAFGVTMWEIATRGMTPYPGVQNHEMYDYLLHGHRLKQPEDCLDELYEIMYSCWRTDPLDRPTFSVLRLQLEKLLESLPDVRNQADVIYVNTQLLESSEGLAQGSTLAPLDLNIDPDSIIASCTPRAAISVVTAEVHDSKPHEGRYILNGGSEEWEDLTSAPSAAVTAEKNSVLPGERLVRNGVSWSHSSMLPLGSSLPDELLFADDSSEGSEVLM

BRPF1 = molecular target: T2, BRPF1 (Homo sapiens, UniProt P55201)
T2 sequence (P55201 1-1214): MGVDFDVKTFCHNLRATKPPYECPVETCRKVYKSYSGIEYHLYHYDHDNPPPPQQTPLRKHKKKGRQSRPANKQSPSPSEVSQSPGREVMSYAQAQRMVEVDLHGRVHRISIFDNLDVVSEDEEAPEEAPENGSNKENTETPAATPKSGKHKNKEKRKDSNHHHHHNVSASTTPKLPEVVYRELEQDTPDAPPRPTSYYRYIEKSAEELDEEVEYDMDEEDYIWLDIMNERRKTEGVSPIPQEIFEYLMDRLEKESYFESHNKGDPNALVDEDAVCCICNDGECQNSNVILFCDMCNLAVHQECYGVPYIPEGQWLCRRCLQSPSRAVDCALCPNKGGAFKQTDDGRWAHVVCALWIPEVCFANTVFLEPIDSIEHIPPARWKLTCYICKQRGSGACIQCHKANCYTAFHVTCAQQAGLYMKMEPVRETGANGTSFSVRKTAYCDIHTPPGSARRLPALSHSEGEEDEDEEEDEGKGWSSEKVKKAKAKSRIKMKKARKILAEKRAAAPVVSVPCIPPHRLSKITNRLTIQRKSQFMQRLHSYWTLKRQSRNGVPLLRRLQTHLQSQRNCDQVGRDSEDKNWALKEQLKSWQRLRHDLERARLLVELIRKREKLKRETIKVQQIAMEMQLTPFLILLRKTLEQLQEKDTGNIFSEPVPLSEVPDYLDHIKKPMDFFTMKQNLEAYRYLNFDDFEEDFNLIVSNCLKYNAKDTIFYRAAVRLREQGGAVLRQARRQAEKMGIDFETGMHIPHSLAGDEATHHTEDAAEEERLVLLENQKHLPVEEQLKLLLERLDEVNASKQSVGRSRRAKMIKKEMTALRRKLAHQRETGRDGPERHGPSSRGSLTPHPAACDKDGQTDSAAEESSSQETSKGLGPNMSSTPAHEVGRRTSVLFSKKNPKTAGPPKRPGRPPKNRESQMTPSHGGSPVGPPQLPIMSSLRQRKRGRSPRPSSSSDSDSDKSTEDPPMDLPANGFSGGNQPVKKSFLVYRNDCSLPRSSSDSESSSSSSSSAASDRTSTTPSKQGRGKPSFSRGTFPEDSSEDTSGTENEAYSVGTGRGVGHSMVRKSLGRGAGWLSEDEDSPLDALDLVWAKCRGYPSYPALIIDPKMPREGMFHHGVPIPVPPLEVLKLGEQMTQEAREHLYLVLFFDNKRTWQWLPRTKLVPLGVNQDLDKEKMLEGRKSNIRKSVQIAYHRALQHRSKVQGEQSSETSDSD

DMPK1 = molecular target: T3, DMPK1 (Homo sapiens, UniProt Q09013)
T3 construct: gene DMPK
T3 sequence (Q09013 1-629): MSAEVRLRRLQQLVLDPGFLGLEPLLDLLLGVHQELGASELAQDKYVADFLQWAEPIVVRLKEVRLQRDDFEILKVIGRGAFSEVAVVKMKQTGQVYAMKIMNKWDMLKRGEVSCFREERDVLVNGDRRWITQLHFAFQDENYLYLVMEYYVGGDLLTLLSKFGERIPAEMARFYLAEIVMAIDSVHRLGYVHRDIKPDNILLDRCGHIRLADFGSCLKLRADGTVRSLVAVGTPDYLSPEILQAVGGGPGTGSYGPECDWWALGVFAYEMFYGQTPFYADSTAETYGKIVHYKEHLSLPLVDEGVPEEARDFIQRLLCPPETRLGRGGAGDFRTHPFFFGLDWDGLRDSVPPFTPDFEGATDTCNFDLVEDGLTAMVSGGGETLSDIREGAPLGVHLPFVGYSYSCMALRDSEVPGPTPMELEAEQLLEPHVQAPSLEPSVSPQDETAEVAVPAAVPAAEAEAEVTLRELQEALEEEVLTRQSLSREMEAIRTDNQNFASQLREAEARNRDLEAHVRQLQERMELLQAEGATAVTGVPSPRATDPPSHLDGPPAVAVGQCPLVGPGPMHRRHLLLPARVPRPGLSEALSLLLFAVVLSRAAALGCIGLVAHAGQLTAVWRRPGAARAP

Which ΔTm at 10 µM (MER; read-out: 6c) does the source give for CC(C)Oc1ccc2ccn(-c3cncc(-c4ccc(C(=O)O)cc4)n3)c2c1 [6c] here?
Its ΔTm at 10 µM is 3 °C.

What about the ΔTm at 10 µM (BRPF1; read-out: 6c) of the same molecule?
The ΔTm at 10 µM was -1 °C.

What about the ΔTm at 10 µM (DMPK1; read-out: 6c) of the same molecule?
The ΔTm at 10 µM was 0 °C.

For COc1ccc(OC(C)C)cc1Nc1cncc(-c2ccc(C(=O)O)cc2)n1 [7c], which ΔTm at 10 µM (MER; read-out: 7c) is on record?
The ΔTm at 10 µM was 3 °C.

What about the ΔTm at 10 µM (BRPF1; read-out: 7c) of the same molecule?
Its ΔTm at 10 µM is 0 °C.

And the ΔTm at 10 µM (DMPK1; read-out: 7c)?
Its ΔTm at 10 µM is 0 °C.

For CC(C)Nc1ccc2cnn(-c3cncc(-c4ccc(C(=O)O)cc4)n3)c2c1 [compound 2, 2], which ΔTm at 10 µM (MER; read-out: 2) is on record?
The ΔTm at 10 µM was 3 °C.

What about the ΔTm at 10 µM (BRPF1; read-out: 2) of the same molecule?
The ΔTm at 10 µM was 2 °C.

And the ΔTm at 10 µM (DMPK1; read-out: 2)?
Its ΔTm at 10 µM is 0 °C.
